Like-named read-outs stand apart in the source and are kept apart here.
Assays:
[1] = target: CDK2/CyclinE1 (Homo sapiens (Human), UniProt P24941); experiment: CDK2/CyclinE1 kinase inhibitory activity (Caliper mobility shift); type: biochemical; conditions: read-out: CDK2/Cyclin El IC50
[2] = target: CDK6/CyclinD1 (Homo sapiens (Human), UniProt Q00534); experiment: CDK6/CyclinD1 kinase inhibitory activity (Caliper mobility shift); type: biochemical; conditions: read-out: CDK6/Cyclin D1 IC50
[3] = target: CDK7/CyclinH/MAT1 (Homo sapiens (Human), UniProt P50613); experiment: CDK7/CyclinH/MAT1 kinase inhibitory activity (Caliper mobility shift); type: biochemical
[4] = target: CDK4/Cyclin D1 (Homo sapiens (Human), UniProt P11802); experiment: CDK4/CyclinD1 kinase inhibitory activity (Caliper mobility shift); type: biochemical
[5] = target: CDK9/CyclinT1 (Homo sapiens (Human), UniProt P50750); experiment: CDK9/CyclinT1 kinase inhibitory activity (Caliper mobility shift); type: biochemical; conditions: read-out: CDK9/Cyclin T1 IC50
[6] = target: CDK1/CyclinB (Homo sapiens (Human), UniProt P06493); experiment: CDK1/CyclinB kinase inhibitory activity (Caliper mobility shift); type: biochemical; conditions: read-out: CDK1/Cyclin B1 IC50
[7] = tested on: ER+BC; conditions: cited from earlier work

CDK1/CyclinB, sequence (P06493 whole entry): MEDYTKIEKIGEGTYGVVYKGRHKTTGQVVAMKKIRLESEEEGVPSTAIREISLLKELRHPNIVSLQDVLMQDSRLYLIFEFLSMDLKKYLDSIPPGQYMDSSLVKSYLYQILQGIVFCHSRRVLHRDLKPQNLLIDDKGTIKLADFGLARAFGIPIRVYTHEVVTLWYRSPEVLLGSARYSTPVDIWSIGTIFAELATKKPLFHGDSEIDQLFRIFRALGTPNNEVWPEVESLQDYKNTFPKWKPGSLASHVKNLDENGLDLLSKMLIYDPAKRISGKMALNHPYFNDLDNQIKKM
CDK1/CyclinB, sequence (P14635 whole entry partner): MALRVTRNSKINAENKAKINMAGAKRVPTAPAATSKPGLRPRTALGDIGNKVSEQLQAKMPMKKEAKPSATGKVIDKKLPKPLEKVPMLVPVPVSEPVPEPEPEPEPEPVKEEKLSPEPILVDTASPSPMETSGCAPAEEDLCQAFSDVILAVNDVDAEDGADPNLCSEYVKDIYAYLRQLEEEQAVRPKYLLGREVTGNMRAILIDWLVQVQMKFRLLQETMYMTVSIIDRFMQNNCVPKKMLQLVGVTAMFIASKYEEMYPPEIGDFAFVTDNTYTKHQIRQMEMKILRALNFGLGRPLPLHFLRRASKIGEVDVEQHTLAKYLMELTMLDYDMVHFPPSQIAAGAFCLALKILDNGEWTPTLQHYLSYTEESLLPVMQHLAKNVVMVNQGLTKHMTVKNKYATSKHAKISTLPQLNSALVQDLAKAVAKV
CDK7/CyclinH/MAT1, sequence (P50613 whole entry): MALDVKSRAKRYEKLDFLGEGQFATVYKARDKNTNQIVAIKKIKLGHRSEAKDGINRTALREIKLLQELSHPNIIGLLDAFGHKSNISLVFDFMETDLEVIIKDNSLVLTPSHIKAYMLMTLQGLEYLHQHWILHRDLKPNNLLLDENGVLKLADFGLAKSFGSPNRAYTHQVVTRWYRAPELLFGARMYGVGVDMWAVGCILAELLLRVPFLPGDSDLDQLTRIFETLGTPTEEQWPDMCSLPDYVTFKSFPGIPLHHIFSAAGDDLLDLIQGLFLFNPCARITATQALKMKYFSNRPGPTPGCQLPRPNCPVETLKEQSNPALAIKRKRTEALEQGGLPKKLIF
CDK7/CyclinH/MAT1, sequence (P51946 whole entry partner): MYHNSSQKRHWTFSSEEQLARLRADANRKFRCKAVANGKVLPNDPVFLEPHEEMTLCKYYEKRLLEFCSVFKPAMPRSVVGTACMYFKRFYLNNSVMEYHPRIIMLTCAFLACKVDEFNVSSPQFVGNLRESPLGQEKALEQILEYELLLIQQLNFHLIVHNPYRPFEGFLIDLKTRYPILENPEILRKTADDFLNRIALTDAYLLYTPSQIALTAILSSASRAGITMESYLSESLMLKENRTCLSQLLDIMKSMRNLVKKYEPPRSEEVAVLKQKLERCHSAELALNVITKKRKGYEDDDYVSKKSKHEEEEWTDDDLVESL
CDK7/CyclinH/MAT1, sequence (P51948 whole entry partner): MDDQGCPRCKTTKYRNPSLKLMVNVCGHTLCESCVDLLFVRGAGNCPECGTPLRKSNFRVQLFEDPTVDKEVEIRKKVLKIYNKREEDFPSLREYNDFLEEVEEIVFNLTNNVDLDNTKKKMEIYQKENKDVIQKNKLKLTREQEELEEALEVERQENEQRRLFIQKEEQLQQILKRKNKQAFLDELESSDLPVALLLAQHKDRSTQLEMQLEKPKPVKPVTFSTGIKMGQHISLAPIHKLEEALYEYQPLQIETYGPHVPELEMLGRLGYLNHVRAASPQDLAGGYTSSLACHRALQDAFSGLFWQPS
CDK4/Cyclin D1, sequence (P11802 whole entry): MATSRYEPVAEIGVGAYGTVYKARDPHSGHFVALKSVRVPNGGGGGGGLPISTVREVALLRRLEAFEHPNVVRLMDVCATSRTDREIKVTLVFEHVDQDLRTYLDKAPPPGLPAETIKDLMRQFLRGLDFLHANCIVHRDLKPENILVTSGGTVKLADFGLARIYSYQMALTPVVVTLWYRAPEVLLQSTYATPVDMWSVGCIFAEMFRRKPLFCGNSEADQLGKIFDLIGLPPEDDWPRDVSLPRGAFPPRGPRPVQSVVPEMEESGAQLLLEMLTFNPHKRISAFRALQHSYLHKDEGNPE
CDK4/Cyclin D1, sequence (P24385 whole entry partner): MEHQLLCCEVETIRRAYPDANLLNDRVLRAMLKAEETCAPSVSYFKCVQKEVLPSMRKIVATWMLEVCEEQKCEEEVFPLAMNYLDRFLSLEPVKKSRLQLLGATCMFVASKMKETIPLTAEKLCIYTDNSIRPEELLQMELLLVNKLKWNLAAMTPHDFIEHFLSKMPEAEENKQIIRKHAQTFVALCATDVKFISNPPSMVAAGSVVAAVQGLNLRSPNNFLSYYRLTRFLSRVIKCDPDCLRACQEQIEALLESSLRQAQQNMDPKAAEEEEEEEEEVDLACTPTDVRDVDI
CDK9/CyclinT1, sequence (P50750 whole entry): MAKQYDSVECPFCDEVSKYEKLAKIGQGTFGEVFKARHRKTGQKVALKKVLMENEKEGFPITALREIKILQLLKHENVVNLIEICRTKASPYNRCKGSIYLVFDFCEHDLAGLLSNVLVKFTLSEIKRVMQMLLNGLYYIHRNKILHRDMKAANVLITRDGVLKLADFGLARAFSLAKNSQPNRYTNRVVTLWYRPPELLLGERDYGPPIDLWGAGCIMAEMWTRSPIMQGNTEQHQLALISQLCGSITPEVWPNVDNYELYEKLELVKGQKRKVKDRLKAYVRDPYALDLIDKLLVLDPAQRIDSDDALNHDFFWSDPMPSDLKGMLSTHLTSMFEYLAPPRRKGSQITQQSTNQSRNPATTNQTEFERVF
CDK9/CyclinT1, sequence (O60563 whole entry partner): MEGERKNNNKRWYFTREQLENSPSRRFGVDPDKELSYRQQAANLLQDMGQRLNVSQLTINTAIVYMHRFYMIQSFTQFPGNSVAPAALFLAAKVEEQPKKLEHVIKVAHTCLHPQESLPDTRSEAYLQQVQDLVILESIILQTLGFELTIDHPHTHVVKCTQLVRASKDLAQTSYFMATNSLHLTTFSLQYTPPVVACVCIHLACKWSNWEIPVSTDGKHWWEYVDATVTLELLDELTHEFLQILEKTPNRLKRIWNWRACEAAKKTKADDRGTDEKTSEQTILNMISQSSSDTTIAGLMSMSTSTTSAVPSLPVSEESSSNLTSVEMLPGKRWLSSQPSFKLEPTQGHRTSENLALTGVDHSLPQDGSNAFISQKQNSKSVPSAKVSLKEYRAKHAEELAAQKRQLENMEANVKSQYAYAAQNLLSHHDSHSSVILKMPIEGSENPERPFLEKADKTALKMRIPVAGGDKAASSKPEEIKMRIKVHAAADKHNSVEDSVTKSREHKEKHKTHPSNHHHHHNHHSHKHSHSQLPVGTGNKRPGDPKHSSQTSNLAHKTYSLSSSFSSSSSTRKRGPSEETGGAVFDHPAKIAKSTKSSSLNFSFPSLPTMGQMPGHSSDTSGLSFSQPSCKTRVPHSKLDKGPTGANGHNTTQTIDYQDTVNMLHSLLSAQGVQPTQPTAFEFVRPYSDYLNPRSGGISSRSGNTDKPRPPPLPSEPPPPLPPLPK
CDK6/CyclinD1, sequence (Q00534 whole entry): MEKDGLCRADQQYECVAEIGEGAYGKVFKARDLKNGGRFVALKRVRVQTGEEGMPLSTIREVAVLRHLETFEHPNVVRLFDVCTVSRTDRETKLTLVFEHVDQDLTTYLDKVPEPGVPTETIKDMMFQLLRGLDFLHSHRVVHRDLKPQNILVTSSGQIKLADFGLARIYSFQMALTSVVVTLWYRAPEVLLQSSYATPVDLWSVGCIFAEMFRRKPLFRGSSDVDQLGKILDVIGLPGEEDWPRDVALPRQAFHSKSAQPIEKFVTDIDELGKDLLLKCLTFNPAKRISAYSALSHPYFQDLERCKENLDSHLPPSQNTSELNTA
CDK6/CyclinD1, sequence (P24385 whole entry partner): as the sequence (P24385 whole entry partner) above

Compound	IC50 [1]	IC50 [2]	IC50 [3]	IC50 [4]	IC50 [5]	IC50 [6]	median PFS ([7]; CCNE1 high)	median PFS ([7]; CCNE1 low)
N#Cc1cnc(Nc2ccc(S(N)(=O)=O)cc2)nc1OC1CCCC1O (single isomer, unassigned) [Example 20b]	10 to 100 nM	100 to 1000 nM	≥ 1000 nM	100 to 1000 nM	100 to 1000 nM	100 to 1000 nM		
Palbociclib plus fulvestrant [Palbociclib+fulvestrant]							7.6 month	14.1 month
N#Cc1cnc(Nc2ccc(S(=O)(=O)NC3CCC3)cc2)nc1OC1CCC[C@H]1O (mixture of isomers) [Example 25]	< 10 nM	10 to 100 nM	≥ 1000 nM	100 to 1000 nM	100 to 1000 nM	10 to 100 nM		
C=Cc1cnc(Nc2ccc(S(N)(=O)=O)cc2)nc1OC1CCCC1O (single isomer, unassigned) [Example 155a]	< 10 nM	10 to 100 nM	100 to 1000 nM	100 to 1000 nM	10 to 100 nM	10 to 100 nM		
[2H]C([2H])([2H])NS(=O)(=O)c1ccc(Nc2ncc(C(F)(F)F)c(O[C@H]3CCOC[C@H]3O)n2)cc1 (single isomer, unassigned) [Example 100a, cis-4-((4-((3-hydroxytetrahydro-2H-pyran-4-yl)oxy)-5-(trifluoromethyl)pyrimidin-2-yl)amino)-N-(methyl-d3)benzenesulfonamide]	< 10 nM	100 to 1000 nM	100 to 1000 nM	100 to 1000 nM	100 to 1000 nM	10 to 100 nM		
CC1(COc2nc(NC3CCN(S(C)(=O)=O)CC3)ncc2C#N)CCCC1 [Example 54]	< 10 nM	< 10 nM	100 to 1000 nM	< 10 nM	100 to 1000 nM	10 to 100 nM		
N#Cc1cnc(Nc2ccc(S(N)(=O)=O)cc2)nc1N1CCC[C@H](F)C1 [Example 81]	10 to 100 nM	100 to 1000 nM	≥ 1000 nM	10 to 100 nM	100 to 1000 nM	100 to 1000 nM		
CC1(COc2nc(NC3CCN(S(C)(=O)=O)CC3)ncc2C(F)(F)F)CCCC1 [Example 128]	< 10 nM	10 to 100 nM	≥ 1000 nM	< 10 nM	10 to 100 nM	10 to 100 nM		
Cc1cnc(Nc2ccc(S(=O)(=O)NC(C)C)cc2)nc1OC1CCCC1O (single isomer, unassigned) [Example 147a]	< 10 nM	100 to 1000 nM	100 to 1000 nM	≥ 1000 nM	100 to 1000 nM	10 to 100 nM		
CNS(=O)(=O)N1CCC(Nc2ncc(C#N)c(OCC3(C)CCCC3)n2)CC1 [Example 55]	< 10 nM	10 to 100 nM	≥ 1000 nM	< 10 nM	100 to 1000 nM	10 to 100 nM		

More lines, main results first:

IC50 [1]	IC50 [2]	IC50 [3]	IC50 [4]	IC50 [5]	IC50 [6]	Compound	median PFS ([7]; CCNE1 high)	median PFS ([7]; CCNE1 low)
< 10 nM	100 to 1000 nM	≥ 1000 nM	10 to 100 nM	100 to 1000 nM	10 to 100 nM	[2H]C([2H])([2H])NS(=O)(=O)c1ccc(Nc2ncc(C#N)c(OC3CCCOCC3)n2)cc1 (single isomer, unassigned) [Example 33a]		
< 10 nM	10 to 100 nM	100 to 1000 nM	10 to 100 nM	10 to 100 nM	< 10 nM	NS(=O)(=O)c1ccc(Nc2ncc(C(F)(F)F)c(OC3CCCCC3O)n2)cc1 (single isomer, unassigned) [Example 111b]		
< 10 nM	10 to 100 nM	100 to 1000 nM	100 to 1000 nM	100 to 1000 nM	10 to 100 nM	CNS(=O)(=O)c1ccc(Nc2ncc(Br)c(OC3CCCC3O)n2)cc1 (single isomer, unassigned) [Example 142a]		
< 10 nM	10 to 100 nM	≥ 1000 nM	10 to 100 nM	10 to 100 nM	10 to 100 nM	N#Cc1cnc(Nc2ccc(S(N)(=O)=O)cc2)nc1N1CCCCCC1 [Example 68]		
< 10 nM	10 to 100 nM	100 to 1000 nM	10 to 100 nM	10 to 100 nM	< 10 nM	CC1(O)CCCC1Oc1nc(Nc2ccc(S(N)(=O)=O)cc2)ncc1C#N (single isomer, unassigned) [Example 23a]		
< 10 nM	10 to 100 nM	100 to 1000 nM	10 to 100 nM	100 to 1000 nM	10 to 100 nM	CNS(=O)(=O)N1CCC(Nc2ncc(C(F)(F)F)c(OC3CCCCCC3O)n2)CC1 (single isomer, unassigned) [Example 123b]		

Source: patent publication US20240166635A1, “AMINOHETEROARYL KINASE INHIBITORS” (Anrui Biomedical Technology (Guangzhou) Co.,Ltd., priority 2020, published 2024)
